According to PubChem BioAssay (NCI):
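Each compound was tested at five concentrations against cells in 96-well plates for 48 hours. Definition used: TGI = concentration required for complete inhibition of growth.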

Key:
Test in all cases: NCI-60 cell line screen, 48 h
IGROV1 ovarian = system: IGROV1 ovarian
HCC-2998 colon = system: HCC-2998 colon
MCF7 breast = system: MCF7 breast
NCI-H522 lung = system: NCI-H522 lung
SW-620 colon = system: SW-620 colon
OVCAR-4 ovarian = system: OVCAR-4 ovarian
MALME-3M melanoma = system: MALME-3M melanoma
OVCAR-3 ovarian = system: OVCAR-3 ovarian
BT-549 breast = system: BT-549 breast
NCI/ADR-RES ovarian = system: NCI/ADR-RES ovarian
COLO 205 colon = system: COLO 205 colon
SNB-75 CNS = system: SNB-75 CNS
786-0 renal = system: 786-0 renal
A549 NSCLC = system: A549 NSCLC
UACC-62 melanoma = system: UACC-62 melanoma
RXF 393 renal = system: RXF 393 renal
CCRF-CEM leukemia = system: CCRF-CEM leukemia
T-47D breast = system: T-47D breast
RPMI-8226 leukemia = system: RPMI-8226 leukemia
MDA-MB-231 breast = system: MDA-MB-231 breast
HL-60(TB) leukemia = system: HL-60(TB) leukemia
EKVX NSCLC = system: EKVX NSCLC
SK-MEL-5 melanoma = system: SK-MEL-5 melanoma
KM12 colon = system: KM12 colon
HOP-62 NSCLC = system: HOP-62 NSCLC
UO-31 renal = system: UO-31 renal
SN12C renal = system: SN12C renal
HOP-92 NSCLC = system: HOP-92 NSCLC
MOLT-4 leukemia = system: MOLT-4 leukemia
SF-295 CNS = system: SF-295 CNS
OVCAR-8 ovarian = system: OVCAR-8 ovarian
SNB-19 CNS = system: SNB-19 CNS
OVCAR-5 ovarian = system: OVCAR-5 ovarian
SF-539 CNS = system: SF-539 CNS
HCT-15 colon = system: HCT-15 colon
NCI-H23 lung = system: NCI-H23 lung
ACHN renal = system: ACHN renal
TK-10 renal = system: TK-10 renal
MDA-MB-435 = system: MDA-MB-435
SK-MEL-28 melanoma = system: SK-MEL-28 melanoma
SK-OV-3 ovarian = system: SK-OV-3 ovarian
MDA-N = system: MDA-N
M14 melanoma = system: M14 melanoma
SF-268 CNS = system: SF-268 CNS
LOX IMVI melanoma = system: LOX IMVI melanoma
SR leukemia = system: SR leukemia
CAKI-1 renal = system: CAKI-1 renal
HT29 colon = system: HT29 colon
K-562 leukemia = system: K-562 leukemia
U251 CNS = system: U251 CNS
UACC-257 melanoma = system: UACC-257 melanoma
HS 578T breast = system: HS 578T breast
PC-3 prostate = system: PC-3 prostate
NCI-H460 lung = system: NCI-H460 lung
NCI-H226 lung = system: NCI-H226 lung
DU-145 prostate = system: DU-145 prostate
HCT-116 colon = system: HCT-116 colon
SK-MEL-2 melanoma = system: SK-MEL-2 melanoma
A498 renal = system: A498 renal

In the case of Cn1c2c(c3ccccc31)CC1c3c(c4ccccc4n3C)CC21 (configuration not stated), the TGI (IGROV1 ovarian) is reported as > 100 µM, the TGI (HCC-2998 colon) is reported as > 100 µM and the TGI (MCF7 breast) is reported as > 100 µM. The TGI (NCI-H522 lung) was > 100 µM, the TGI (SW-620 colon) was > 100 µM and the TGI (OVCAR-4 ovarian) was > 100 µM. For the same molecule, the TGI (MALME-3M melanoma) was > 100 µM, the TGI (OVCAR-3 ovarian) was > 100 µM and the TGI (BT-549 breast) was > 100 µM. The TGI (NCI/ADR-RES ovarian) was > 100 µM, the TGI (COLO 205 colon) was > 100 µM and the TGI (SNB-75 CNS) was > 100 µM. For the same molecule, the TGI (786-0 renal) was > 100 µM, the TGI (A549 NSCLC) was > 100 µM and the TGI (UACC-62 melanoma) was > 100 µM. The TGI (RXF 393 renal) was > 100 µM, the TGI (CCRF-CEM leukemia) was > 100 µM and the TGI (T-47D breast) was > 100 µM. The TGI (RPMI-8226 leukemia) was > 100 µM, the TGI (MDA-MB-231 breast) was > 100 µM and the TGI (HL-60(TB) leukemia) was > 100 µM. For the same molecule, the TGI (EKVX NSCLC) was > 100 µM, the TGI (SK-MEL-5 melanoma) was > 100 µM and the TGI (KM12 colon) was > 100 µM. The TGI (HOP-62 NSCLC) was > 100 µM, the TGI (UO-31 renal) was > 100 µM and the TGI (SN12C renal) was > 100 µM. The TGI (HOP-92 NSCLC) was > 100 µM, the TGI (MOLT-4 leukemia) was > 100 µM and the TGI (SF-295 CNS) was > 100 µM. For the same molecule, the TGI (OVCAR-8 ovarian) was > 100 µM, the TGI (SNB-19 CNS) was > 100 µM and the TGI (OVCAR-5 ovarian) was > 100 µM. For the same molecule, the TGI (SF-539 CNS) was > 100 µM, the TGI (HCT-15 colon) was > 100 µM and the TGI (NCI-H23 lung) was > 100 µM. The TGI (ACHN renal) was > 100 µM, the TGI (TK-10 renal) was > 100 µM and the TGI (MDA-MB-435) was > 100 µM. For the same molecule, the TGI (SK-MEL-28 melanoma) was > 100 µM, the TGI (SK-OV-3 ovarian) was > 100 µM and the TGI (MDA-N) was > 100 µM. For the same molecule, the TGI (M14 melanoma) was > 100 µM, the TGI (SF-268 CNS) was > 100 µM and the TGI (LOX IMVI melanoma) was > 100 µM. For the same molecule, the TGI (SR leukemia) was > 100 µM, the TGI (CAKI-1 renal) was > 100 µM and the TGI (HT29 colon) was > 100 µM. For the same molecule, the TGI (K-562 leukemia) was > 100 µM, the TGI (U251 CNS) was > 100 µM and the TGI (UACC-257 melanoma) was > 100 µM. For the same molecule, the TGI (HS 578T breast) was > 100 µM, the TGI (PC-3 prostate) was > 100 µM and the TGI (NCI-H460 lung) was > 100 µM. The TGI (NCI-H226 lung) was > 100 µM and the TGI (DU-145 prostate) was > 100 µM.

For O=C1/C(=C/c2ccc([N+](=O)[O-])cc2)C(=O)N(c2ccccc2)C1c1ccccc1 (configuration not stated), the TGI (IGROV1 ovarian) was > 10 µM, the TGI (HCC-2998 colon) was > 10 µM and the TGI (MCF7 breast) was > 10 µM. The TGI (NCI-H522 lung) was > 10 µM, the TGI (SW-620 colon) was > 10 µM and the TGI (OVCAR-4 ovarian) was > 10 µM. For the same molecule, the TGI (HCT-116 colon) was > 10 µM, the TGI (OVCAR-3 ovarian) was > 10 µM and the TGI (BT-549 breast) was > 10 µM. For the same molecule, the TGI (NCI/ADR-RES ovarian) was > 10 µM, the TGI (COLO 205 colon) was > 10 µM and the TGI (SNB-75 CNS) was > 10 µM. The TGI (786-0 renal) was > 10 µM, the TGI (A549 NSCLC) was > 10 µM and the TGI (UACC-62 melanoma) was > 10 µM. For the same molecule, the TGI (SK-MEL-2 melanoma) was > 10 µM, the TGI (RXF 393 renal) was > 10 µM and the TGI (CCRF-CEM leukemia) was > 10 µM. For the same molecule, the TGI (T-47D breast) was > 10 µM, the TGI (RPMI-8226 leukemia) was > 10 µM and the TGI (MDA-MB-231 breast) was > 10 µM. For the same molecule, the TGI (HL-60(TB) leukemia) was > 10 µM, the TGI (EKVX NSCLC) was > 10 µM and the TGI (SK-MEL-5 melanoma) was > 10 µM. The TGI (KM12 colon) was > 10 µM, the TGI (HOP-62 NSCLC) was > 10 µM and the TGI (UO-31 renal) was > 10 µM. The TGI (A498 renal) was > 10 µM, the TGI (SN12C renal) was > 10 µM and the TGI (MOLT-4 leukemia) was > 10 µM. For the same molecule, the TGI (SF-295 CNS) was > 10 µM, the TGI (OVCAR-8 ovarian) was > 10 µM and the TGI (SNB-19 CNS) was > 10 µM. For the same molecule, the TGI (OVCAR-5 ovarian) was > 10 µM, the TGI (SF-539 CNS) was > 10 µM and the TGI (HCT-15 colon) was > 10 µM. The TGI (NCI-H23 lung) was > 10 µM, the TGI (ACHN renal) was > 10 µM and the TGI (TK-10 renal) was > 10 µM. For the same molecule, the TGI (MDA-MB-435) was > 10 µM, the TGI (SK-MEL-28 melanoma) was > 10 µM and the TGI (SK-OV-3 ovarian) was > 10 µM. For the same molecule, the TGI (MDA-N) was > 10 µM, the TGI (M14 melanoma) was > 10 µM and the TGI (SF-268 CNS) was > 10 µM. For the same molecule, the TGI (LOX IMVI melanoma) was > 10 µM, the TGI (SR leukemia) was > 10 µM and the TGI (CAKI-1 renal) was > 10 µM. For the same molecule, the TGI (HT29 colon) was > 10 µM, the TGI (U251 CNS) was > 10 µM and the TGI (UACC-257 melanoma) was > 10 µM. For the same molecule, the TGI (HS 578T breast) was > 10 µM, the TGI (PC-3 prostate) was > 10 µM and the TGI (NCI-H460 lung) was > 10 µM. The TGI (NCI-H226 lung) was > 10 µM and the TGI (DU-145 prostate) was > 10 µM.
